The text below walks through data of ChEMBL document CHEMBL1759854, “Inhibitors of the tyrosine kinase EphB4. Part 4: Discovery and optimization of a benzylic alcohol series” (Bioorg Med Chem Lett, 2011).

The nature of one data set: physchem. The conditions noted are these: octanol/water.
A short description of data set [1]: AUC in nude mouse at 100 umol/kg, po. The class given is ADME, organism-based. The conditions noted are these: plasma.
Data set [2] is described as follows: Cmax in nude mouse at 100 umol/kg, po. Type of data set: ADME, organism-based. Also on record: dose 100 umol/kg, route oral. The conditions noted are these: in vivo.
Data set [3] is described as follows: AUC in nude mouse at 200 umol/kg, po. The class given is ADME, organism-based. The conditions noted are these: plasma.
Data set [4] can be described thus: Cmax in nude mouse at 200 umol/kg, po. Type of data set: ADME, organism-based. On the set-up: dose 200 umol/kg, route oral. The conditions noted are these: in vivo.
Another data set concerns Canis familiaris. In words: Clearance in Beagle dog assessed as liver blood flow at 2 umol/kg, iv and 5 umol/kg, po. Type of data set: ADME, organism-based, Canis lupus familiaris. The conditions noted are these: in vivo.
A short description of data set [5]: Volume of distribution at steady state in Beagle dog at 2 umol/kg, iv and 5 umol/kg, po. The class given is ADME, organism-based, Canis lupus familiaris. The conditions noted are these: in vivo, read-out: Vdss.
Data set [6] in a line: Oral bioavailability in Beagle dog at 5 umol/kg, po. Type of data set: ADME, organism-based, Canis lupus familiaris. The conditions noted are these: in vivo.
Data set [7] can be described thus: AUC in nude mouse at 10 umol/kg, po. The conditions noted are these: plasma. Type of data set: ADME, organism-based.
Data set [8] can be described thus: Cmax in nude mouse at 10 umol/kg, po. Type of data set: ADME, organism-based. Also on record: dose 10 umol/kg, route oral. The conditions noted are these: in vivo.
A short description of data set [9]: Oral bioavailability in Han Wistar rat at 5 or 10 µmol/kg, po. The conditions noted are these: in vivo.
The subject of a further data set is Rattus norvegicus. Kind of data set: Clearance in Han Wistar rat assessed as liver blood flow at 1 or 2.5 µmol/kg, iv and 5 or 10 µmol/kg, po. The conditions noted are these: in vivo.
A short description of data set [10]: Volume of distribution at steady state in Han Wistar rat at 1 or 2.5 µmol/kg, iv and 5 or 10 µmol/kg, po. The conditions noted are these: in vivo, read-out: Vdss.

By logD is commonly meant the decadic logarithm of the distribution of all forms, ionised or not, between an organic phase and buffer at a given pH. A high value points to higher lipophilicity. On to `Cc1ccc(CO)cc1N(c1ccnc(Nc2cc(N3CCOCC3)cc(S(C)(=O)=O)c2)n1)C(C)C`, for which, in “physchem”, the logD came to 3.4.

A word on the AUC: it is concentration integrated over time. Read a low AUC as less exposure. In general, Cmax refers to the peak of the concentration-time curve. For orientation: bioavailability means the share of a dose that reaches the circulation, judged against a reference dose that is usually intravenous. Take `Cc1ccc(CO)cc1N(C)c1ccnc(Nc2cc(N3CCOCC3)cc(N3CCOCC3)c2)n1`: the results for the AUC in data set [1], in [3] and in [7] were 63 µM·h, 155 µM·h and 1.6 µM·h, respectively. The Cmax in data set [2] was 15 µM; in data set [4], 17 µM; in [8], 1.9 µM. Moreover, the figures for the LBF in the data set on Canis familiaris and in the data set with Rattus norvegicus were 51% and 11%, respectively. Further, the Vd in [5] was 2.1 L/kg; in data set [10], 0.5 L/kg. The bioavailability came to 58% in data set [6] and 78% in [9]. This compound showed a logD in “physchem” of 3.1.

On to `Cc1ccc(CO)cc1N(C)c1ccnc(Nc2cc(N3CCCC3)cc(N3CCOCC3)c2)n1`, for which the logD in the data set “physchem” stood at 3.8.

Take `Cc1ccc(CO)cc1N(C)c1ccnc(Nc2cc(N3CCCCC3)cc(N3CCOCC3)c2)n1`: the logD in the data set “physchem” turned out to be 4.2.

With `Cc1ccc(CO)cc1N(C)c1ccnc(Nc2cc(N3CCCOCC3)cc(N3CCOCC3)c2)n1`, in “physchem”, the logD was 3.3.

In turn, `Cc1ccc(CO)cc1N(C)c1ccnc(Nc2cc(N3CCOCC3)cc(N3CCN(O)CC3)c2)n1` displayed a logD in the data set “physchem” of 2.8.

Take `Cc1ccc(CO)cc1N(C)c1ccnc(Nc2cc(CN3CCOCC3)cc(N3CCOCC3)c2)n1`: in “physchem”, the logD was found to be 3.

In “physchem”, `Cc1ccc(CO)cc1N(C)c1ccnc(Nc2cc(C(=O)N3CCOCC3)cc(N3CCOCC3)c2)n1` returned a logD of 2.2.

In “physchem”, `Cc1ccc(CO)cc1N(C)c1ccnc(Nc2cc(OC3CCOCC3)cc(N3CCOCC3)c2)n1` had a logD of 3.7.

In “physchem”, `COCCOc1cc(Nc2nccc(N(C)c3cc(CO)ccc3C)n2)cc(N2CCOCC2)c1` showed a logD of 3.3.

In turn, `COc1cc(Nc2nccc(N(C)c3cc(CO)ccc3C)n2)cc(N2CCOCC2)c1` gave a logD in “physchem” of 3.9.

`Cc1ccc(CO)cc1N(C)c1ccnc(Nc2cc(N3CCOCC3)cc(S(C)(=O)=O)c2)n1` gave a bioavailability in data set [9] of 17%. Also, in the data set with Rattus norvegicus, the LBF came to 16%. In addition, the Vd in [10] is 0.4 L/kg.

In “physchem”, `CCN(c1ccnc(Nc2cc(N3CCOCC3)cc(N3CCOCC3)c2)n1)c1cc(CO)ccc1C` yielded a logD of 3.8.

Consider `COCCN(c1ccnc(Nc2cc(N3CCOCC3)cc(N3CCOCC3)c2)n1)c1cc(CO)ccc1C`, for which the logD in the data set “physchem” stood at 2.8.

With `Cc1ccc(CO)cc1N(C)c1ccnc(Nc2cc(N3CCOCC3)nc(N3CCOCC3)c2)n1`, the LBF with Canis familiaris is recorded as 57%; in the data set on Rattus norvegicus, 9%. Further, the results for the Vd in data set [5] and in data set [10] were 1.6 L/kg and 0.7 L/kg, respectively. Further, the bioavailability in data set [6] amounted to 22%; in [9] it was 64%. Further, the logD in “physchem” was found to be 3.4.

In the data set “physchem”, `Cc1ccc(CO)cc1N(C)c1ccnc(Nc2cc(N3CCOCC3)nc(N3CCOCC3)n2)n1` yielded a logD of 3.9.
